{"source": "ChEMBL document CHEMBL5154828", "about": "(J Med Chem, 2022)", "key": {"MCF7": {"test_system": "MCF7", "assay": "Anti-hyperplasia activity in […] Sprague-Dawley rat assessed as appearance of tall columnar phenotype in epithelial cells at 60 mg/kg, po once daily for 3 days by hematoxylin and eosin staining based assay", "type": "functional, organism-based", "settings": "time 3.0 day"}, "[1]": {"assay": "Cmax in Sprague-Dawley rat at 10 mg/kg, po measured up to 24 hrs by LC/MS/MS analysis", "type": "ADME, organism-based", "parameters": "time < 24 hrs, dose 10 mg/kg, route po", "settings": "in vivo"}, "[2]": {"assay": "AUC (0 to t) in Sprague-Dawley rat at 10 mg/kg, po measured up to 24 hrs by LC/MS/MS analysis", "type": "ADME, organism-based", "parameters": "time < 24 hrs, dose 10 mg/kg, route po", "settings": "in vivo"}, "Estrogen receptor [3]": {"target": "Estrogen receptor (Homo sapiens, UniProt P03372, Y537S)", "sequence (P03372 whole entry Y537S)": "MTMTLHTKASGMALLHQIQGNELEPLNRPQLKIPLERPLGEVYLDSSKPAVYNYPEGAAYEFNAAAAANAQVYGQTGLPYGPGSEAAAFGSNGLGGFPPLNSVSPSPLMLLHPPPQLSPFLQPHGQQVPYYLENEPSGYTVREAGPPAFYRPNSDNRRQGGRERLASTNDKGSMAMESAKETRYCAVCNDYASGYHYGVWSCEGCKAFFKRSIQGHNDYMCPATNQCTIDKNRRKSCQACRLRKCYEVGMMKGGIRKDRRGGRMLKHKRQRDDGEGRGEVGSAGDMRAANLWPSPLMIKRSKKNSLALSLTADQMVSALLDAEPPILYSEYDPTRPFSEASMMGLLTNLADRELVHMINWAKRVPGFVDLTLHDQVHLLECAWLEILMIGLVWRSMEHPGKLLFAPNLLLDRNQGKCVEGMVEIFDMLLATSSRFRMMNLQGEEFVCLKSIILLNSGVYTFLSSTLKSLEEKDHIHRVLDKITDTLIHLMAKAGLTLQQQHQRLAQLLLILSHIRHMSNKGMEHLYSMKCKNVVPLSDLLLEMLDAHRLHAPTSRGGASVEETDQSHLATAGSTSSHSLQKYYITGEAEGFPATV", "assay": "Antagonist activity at ERalpha Y537S mutant degradation in human SK-BR-3 cells incubated for 24 hrs in presence of beta-estradiol by luciferase gene assay", "type": "cell-based"}, "Estrogen receptor [4]": {"target": "Estrogen receptor (Homo sapiens, UniProt P03372, D538G)", "sequence (P03372 whole entry D538G)": "as the sequence (P03372 whole entry Y537S) above, with S537Y, D538G counted along it", "assay": "Antagonist activity at ERalpha D538G mutant degradation in human SK-BR-3 cells incubated for 24 hrs in presence of beta-estradiol by luciferase gene assay", "type": "cell-based"}, "Estrogen receptor [5]": {"target": "T1, Estrogen receptor (Homo sapiens, UniProt P03372)", "T1 sequence (P03372 whole entry)": "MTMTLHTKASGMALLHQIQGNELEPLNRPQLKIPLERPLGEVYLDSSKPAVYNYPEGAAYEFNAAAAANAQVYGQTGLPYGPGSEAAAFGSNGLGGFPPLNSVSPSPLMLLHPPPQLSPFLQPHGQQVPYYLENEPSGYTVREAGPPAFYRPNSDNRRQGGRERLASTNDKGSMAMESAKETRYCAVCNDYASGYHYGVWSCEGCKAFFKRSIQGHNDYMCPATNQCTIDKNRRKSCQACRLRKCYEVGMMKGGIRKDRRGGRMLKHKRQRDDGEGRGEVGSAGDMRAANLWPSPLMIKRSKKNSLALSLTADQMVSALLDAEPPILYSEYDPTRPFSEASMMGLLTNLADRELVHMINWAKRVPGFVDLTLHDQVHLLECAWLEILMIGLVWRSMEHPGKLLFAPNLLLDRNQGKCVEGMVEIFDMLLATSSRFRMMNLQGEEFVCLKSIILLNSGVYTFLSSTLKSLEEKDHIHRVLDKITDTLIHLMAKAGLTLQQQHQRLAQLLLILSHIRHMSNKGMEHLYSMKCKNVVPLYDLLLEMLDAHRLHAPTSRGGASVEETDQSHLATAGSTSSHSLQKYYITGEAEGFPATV", "assay": "Induction of ERalpha degradation in human MCF7 cells incubated for 24 hrs by Western blot analysis", "type": "cell-based"}, "[6]": {"assay": "AUC (0 to t) in Sprague-Dawley rat at 5 mg/kg, po measured up to 24 hrs by LC/MS/MS analysis", "type": "ADME, organism-based", "parameters": "time < 24 hrs, dose 5 mg/kg, route po", "settings": "in vivo"}, "[7]": {"assay": "Cmax in Sprague-Dawley rat at 5 mg/kg, po measured up to 24 hrs by LC/MS/MS analysis", "type": "ADME, organism-based", "parameters": "time < 24 hrs, dose 5 mg/kg, route po", "settings": "in vivo"}}, "note": "Active and inactive are the calls of the source. The rule behind the calls is not given here.", "data": [{"smiles": "CC/C(=C(\\c1ccc(O)cc1)c1ccc(OCCN(C)C)cc1)c1ccccc1", "values": [{"measurement": "Activity", "setting": "MCF7", "value": "Active"}]}, {"smiles": "CC(F)(F)c1cc(Cl)ccc1-c1sc2c(ccc3[nH]ncc32)c1Oc1ccc(NC2CN(CCCF)C2)cc1", "values": [{"measurement": "Cmax", "setting": "[1]", "value": 0.228, "unit": "µg/mL"}, {"measurement": "AUC(0-t) at 24 h", "setting": "[2]", "value": 3.09, "unit": "µg·h/mL"}, {"measurement": "IC50", "setting": "Estrogen receptor [3]", "value": 0.0131, "unit": "µM"}, {"measurement": "IC50", "setting": "Estrogen receptor [4]", "value": 0.0166, "unit": "µM"}, {"measurement": "EC50", "setting": "Estrogen receptor [5]", "value": 0.0012, "unit": "µM"}]}, {"smiles": "CC(F)(F)c1cc(-c2sc3cc(O)ccc3c2Oc2ccc(/C=C/C(=O)O)cc2)ccc1F", "values": [{"measurement": "AUC(0-t) at 24 h", "setting": "[6]", "value": 0.585, "unit": "µg·h/mL"}, {"measurement": "Cmax", "setting": "[7]", "value": 0.283, "unit": "µg/mL"}]}]}
